According to patent publication US20160031909A1, “PORPHYRAZINE OPTICAL AND DUAL OPTICAL/ MR CONTRAST AND THERAPEUTIC AGENTS” (HOFFMAN/BARRETT, LLC, priority 2013, published 2016):
Values joined by “and” are separate entries in the source; they are usually repeats but may differ in a detail not shown here. Equal values may be shown once. “Also recorded” adds a separate entry of the source.

Experiments:
[1] = Ex vivo biodistribution by ICP-MS; assay type: in vivo, athymic nude mice
Procedure: Cu-Pz-Gd(III) was examined as a contrast agent in vivo in an orthotopic breast tumor model in athymic nude mice. MDA-MB-231 breast tumor cells expressing mCherry fluorescent protein were implanted in the mammary fat pad of mice and tumors were allowed to grow to about 5 mm in diameter at which time mice were treated with 450 nmol (50 mg/kg) Cu-Pz-Gd(III) together with saline treated control mice (FIG. 3A).
Images were acquired at baseline, and 4, 24, and 48 hours after injection of 150 μL of imaging agent via the tail vein. One control animal was injected with saline; the remaining 9 animals were injected with 450 nmol Cu-Pz-Gd(III). Three animals were sacrificed after 4 hour, 24 hour, and 48 hour timepoints, respectively; the organs were collected for ICP-MS (described below) to measure biodistribution.
Mice were sacrificed by CO2 inhalation followed by cervical dislocation. Blood, urine (where possible), tumor, liver, kidney, spleen, heart, lungs, and samples of skin and skeletal muscle were collected for elemental analysis by ICP-MS as described below. In one additional mouse that was not treated with an imaging agent, the tumor was collected and fixed in 10% formalin for histological analysis. […]

Water solubility = assay type: physicochemical
Procedure: The pz platform is diol pz 285, which was prepared and activated for nucleophilic substitution by arenesulfonylation to produce bis-tosylate pz 286 as previously described (13). Subsequent nucleophilic substitution of pz 286 with excess sodium azide gave diazide pz 288, which was suitable for conjugation via cycloaddition reactions with the alkyne-functionalized Gd595. (Scheme 1). The use of catalytic copper(II) sulfate in this conjugation reaction partially metallates the pz core. To address this issue, pz 288 either was metallated with ZnCl2 prior to reaction with the alkyne or a stoichiometric amount of the […] catalyst was used to ensure that the pz core was completely cuprated. Standard cycloaddition reaction conditions were subsequently used to conjugate metallated pz diazides with Gd595 to produce Zn-Pz-Gd(III) and Cu-Pz-Gd(III) conjugates, which were isolated by preparative HPLC in 52% and 57% isolated yields, respectively. Trace amounts of Zn-Pz-Gd(III) were transmetallated to Cu-Pz-Gd(III), but this small amount was removed during purification.

[2] = HPLC analysis of urine collected from mice; assay type: in vivo, athymic nude mice
MDA-MB-231 cells = experiment: MR imaging of cell pellets at 9.4 T; assay type: cell-based
Procedure: To determine whether the cellular uptake and molecular relativity of Cu-Pz-Gd(III) provides an effective MR contrast agent, MDA-MB-231 breast tumor cells were treated with M-Pz-Gd(III) complexes (200 μM) and centrifuged into capillaries (about 1.0 mm diameter) prior to MR imaging. […] The amount of Gd(III) per cell was determined by ICP-MS for each pellet and, as expected, T1 is inversely proportional to Gd(III) content. (FIG. 2B).
9.4 T MR imaging and T1/T2 measurements were performed on a Bruker Biospec 9.4 T imaging spectrometer fitted with shielded gradient coils at 25° C. For cell pellets images, about 2.0×10^6 MDA-MB-231 cells were incubated in 25-cm^2 T-flasks with either Cu-Pz-Gd(III), Zn-Pz-Gd(III) or DOTA-Gd(III) (400 μM wrt Gd(III)) for 24 hours, rinsed with DPBS (3×5 mL/flask), and harvested with 500 μL, of a 0.25-vol % trypLE Express solution. […] The bottom sections of the flame-sealed pipets were then scored with a glass scribe, broken into small capillaries, then imaged using a RF RES 400 1H 089/038 quadrature transmit receive 23-mm volume coil (Bruker BioSpin, Billerica, Mass., USA).
Spin-lattice relaxation times (T1) were measured using a […] (RARE-VTR) T1-map pulse sequence, with static TE (10 ms) and variable TR (100, 200, 400, 500, 750, 1000, 2500, 5000, 7500, and 10000 ms) values. […]

Question: Which route of clearance ([1]; biodistribution data by ICP-MS) does the source give for “Cu[Pz(C19H28N8O7Gd)2]. Pz=18,21-bis(2-(1H-1,2,3-triazole-4-yl) ethoxy)-tris-[1,4-dioxino[g,l,q](2R,3R)-2,3-dimethoxy-2,3-dimethyll 25H,27H-benzo[b]porphyrazine; C19H28N8O7Gd=N-methyl-2-aminoacetamide-4,7,10-tris(carboxymethyl)-1,4,7,10-tetraazacyclododecylgadolinium(III)) [Cu-Pz-Gd(III)]” here?
Answer: The route of clearance was “rapidly cleared, primarily through the kidneys; also recorded: primarily through the kidneys and liver; also recorded: cleared through the kidneys and liver”.

Question: What about the tumor accumulation ([1]; ex vivo biodistribution study) of the same substance?
Answer: Its tumor accumulation is “accumulates in tumors”.

Question: What about the water solubility (Water solubility) of the same substance?
Answer: Its water solubility is “freely water soluble”.

Question: And the “form cleared in urine” value [2]?
Answer: Its value is “cleared intact”.

Question: What about the “MR image intensity of cell pellets” value (MDA-MB-231 cells; MDA-MB-231, 200 μM, vs Zn-Pz-Gd(III), DOTA-Gd(III) or vehicle) of the same substance?
Answer: The value was “significant increases in image intensity”.

Question: What about the “contrast to noise ratio (CNR)” value (MDA-MB-231 cells; MDA-MB-231 cell pellets, 200 μM complex (400 μM wrt Gd(III)), 24 hours, 9.4 T, 25° C.) of the same substance?
Answer: The value was 9.336±0.335 and 9.336.
